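Compound exposure: 48 hours, 5 concentrations, 96-well plates. GI50 is the concentration that inhibits growth by half. TGI: concentration producing complete growth inhibition.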
Columns and labels:
Assay in all cases: NCI tumour cell line growth inhibition, 48 h
786-0 renal = test system: 786-0 renal
A498 renal = test system: A498 renal
A549 NSCLC = test system: A549 NSCLC
ACHN renal = test system: ACHN renal
BT-549 breast = test system: BT-549 breast
CAKI-1 renal = test system: CAKI-1 renal
CCRF-CEM leukemia = test system: CCRF-CEM leukemia
COLO 205 colon = test system: COLO 205 colon
DU-145 prostate = test system: DU-145 prostate
EKVX NSCLC = test system: EKVX NSCLC
HCC-2998 colon = test system: HCC-2998 colon
HCT-116 colon = test system: HCT-116 colon
HCT-15 colon = test system: HCT-15 colon
HL-60(TB) leukemia = test system: HL-60(TB) leukemia
HOP-62 NSCLC = test system: HOP-62 NSCLC
HOP-92 NSCLC = test system: HOP-92 NSCLC
HS 578T breast = test system: HS 578T breast
HT29 colon = test system: HT29 colon
IGROV1 ovarian = test system: IGROV1 ovarian
K-562 leukemia = test system: K-562 leukemia
KM12 colon = test system: KM12 colon
LOX IMVI melanoma = test system: LOX IMVI melanoma
M14 melanoma = test system: M14 melanoma
MALME-3M melanoma = test system: MALME-3M melanoma
MCF7 breast = test system: MCF7 breast
MDA-MB-231 breast = test system: MDA-MB-231 breast
MDA-MB-435 = test system: MDA-MB-435
MOLT-4 leukemia = test system: MOLT-4 leukemia
NCI-H226 lung = test system: NCI-H226 lung
NCI-H23 lung = test system: NCI-H23 lung
NCI-H460 lung = test system: NCI-H460 lung
NCI-H522 lung = test system: NCI-H522 lung
NCI/ADR-RES ovarian = test system: NCI/ADR-RES ovarian
OVCAR-3 ovarian = test system: OVCAR-3 ovarian
OVCAR-4 ovarian = test system: OVCAR-4 ovarian
OVCAR-5 ovarian = test system: OVCAR-5 ovarian
OVCAR-8 ovarian = test system: OVCAR-8 ovarian
PC-3 prostate = test system: PC-3 prostate
RPMI-8226 leukemia = test system: RPMI-8226 leukemia
RXF 393 renal = test system: RXF 393 renal
SF-268 CNS = test system: SF-268 CNS
SF-295 CNS = test system: SF-295 CNS
SF-539 CNS = test system: SF-539 CNS
SK-MEL-2 melanoma = test system: SK-MEL-2 melanoma
SK-MEL-28 melanoma = test system: SK-MEL-28 melanoma
SK-MEL-5 melanoma = test system: SK-MEL-5 melanoma
SK-OV-3 ovarian = test system: SK-OV-3 ovarian
SN12C renal = test system: SN12C renal
SNB-19 CNS = test system: SNB-19 CNS
SNB-75 CNS = test system: SNB-75 CNS
SR leukemia = test system: SR leukemia
SW-620 colon = test system: SW-620 colon
T-47D breast = test system: T-47D breast
TK-10 renal = test system: TK-10 renal
U251 CNS = test system: U251 CNS
UACC-257 melanoma = test system: UACC-257 melanoma
UACC-62 melanoma = test system: UACC-62 melanoma
UO-31 renal = test system: UO-31 renal

Q: For O=C1c2ccccc2C(=O)c2c(N=Nc3[nH]c(=S)[nH]c3O)cccc21, which GI50 (786-0 renal) is on record?
A: 1110 nM

Q: What about the TGI (786-0 renal) of the same molecule?
A: > 100000 nM

Q: What about the GI50 (A498 renal) of the same molecule?
A: 104 nM

Q: And the TGI (A498 renal)?
A: 1130 nM

Q: What about the GI50 (A549 NSCLC) of the same molecule?
A: 1750 nM

Q: And the TGI (A549 NSCLC)?
A: > 100000 nM

Q: And the GI50 (ACHN renal)?
A: 1900 nM

Q: And the TGI (ACHN renal)?
A: > 100000 nM

Q: And the GI50 (BT-549 breast)?
A: 1120 nM

Q: What about the TGI (BT-549 breast) of the same molecule?
A: 43300 nM

Q: What about the GI50 (CAKI-1 renal) of the same molecule?
A: 548 nM

Q: What about the TGI (CAKI-1 renal) of the same molecule?
A: > 75000 nM

Q: What about the GI50 (CCRF-CEM leukemia) of the same molecule?
A: 384 nM

Q: What about the TGI (CCRF-CEM leukemia) of the same molecule?
A: > 100000 nM

Q: What about the GI50 (COLO 205 colon) of the same molecule?
A: 2410 nM

Q: What about the TGI (COLO 205 colon) of the same molecule?
A: > 100000 nM

Q: And the GI50 (DU-145 prostate)?
A: 984 nM

Q: What about the TGI (DU-145 prostate) of the same molecule?
A: > 42400 nM

Q: What about the GI50 (EKVX NSCLC) of the same molecule?
A: 4710 nM

Q: And the TGI (EKVX NSCLC)?
A: > 100000 nM

Q: What about the GI50 (HCC-2998 colon) of the same molecule?
A: 3080 nM

Q: And the TGI (HCC-2998 colon)?
A: > 100000 nM

Q: What about the GI50 (HCT-116 colon) of the same molecule?
A: 462 nM

Q: What about the TGI (HCT-116 colon) of the same molecule?
A: > 100000 nM

Q: And the GI50 (HCT-15 colon)?
A: 689 nM

Q: What about the TGI (HCT-15 colon) of the same molecule?
A: > 100000 nM

Q: What about the GI50 (HL-60(TB) leukemia) of the same molecule?
A: 1130 nM

Q: And the TGI (HL-60(TB) leukemia)?
A: > 100000 nM

Q: And the GI50 (HOP-62 NSCLC)?
A: 1840 nM

Q: What about the TGI (HOP-62 NSCLC) of the same molecule?
A: > 61600 nM

Q: And the GI50 (HOP-92 NSCLC)?
A: 877 nM

Q: What about the TGI (HOP-92 NSCLC) of the same molecule?
A: > 57200 nM

Q: What about the GI50 (HS 578T breast) of the same molecule?
A: 462 nM

Q: What about the TGI (HS 578T breast) of the same molecule?
A: 47900 nM

Q: And the GI50 (HT29 colon)?
A: 2530 nM

Q: What about the TGI (HT29 colon) of the same molecule?
A: > 100000 nM

Q: And the GI50 (IGROV1 ovarian)?
A: 968 nM

Q: What about the TGI (IGROV1 ovarian) of the same molecule?
A: > 100000 nM

Q: What about the GI50 (K-562 leukemia) of the same molecule?
A: 434 nM

Q: And the TGI (K-562 leukemia)?
A: > 100000 nM

Q: What about the GI50 (KM12 colon) of the same molecule?
A: 454 nM

Q: What about the TGI (KM12 colon) of the same molecule?
A: > 100000 nM

Q: And the GI50 (LOX IMVI melanoma)?
A: 734 nM

Q: What about the TGI (LOX IMVI melanoma) of the same molecule?
A: > 100000 nM

Q: And the GI50 (M14 melanoma)?
A: 579 nM

Q: What about the TGI (M14 melanoma) of the same molecule?
A: > 100000 nM

Q: What about the GI50 (MALME-3M melanoma) of the same molecule?
A: 769 nM

Q: And the TGI (MALME-3M melanoma)?
A: > 100000 nM

Q: And the GI50 (MCF7 breast)?
A: 357 nM

Q: What about the TGI (MCF7 breast) of the same molecule?
A: > 100000 nM

Q: And the GI50 (MDA-MB-231 breast)?
A: 1300 nM

Q: What about the TGI (MDA-MB-231 breast) of the same molecule?
A: 18300 nM

Q: And the GI50 (MDA-MB-435)?
A: 224 nM

Q: And the TGI (MDA-MB-435)?
A: 630 nM

Q: What about the GI50 (MOLT-4 leukemia) of the same molecule?
A: 1100 nM

Q: What about the TGI (MOLT-4 leukemia) of the same molecule?
A: > 100000 nM

Q: And the GI50 (NCI-H226 lung)?
A: 4330 nM

Q: What about the TGI (NCI-H226 lung) of the same molecule?
A: > 56900 nM

Q: What about the GI50 (NCI-H23 lung) of the same molecule?
A: 1670 nM

Q: And the TGI (NCI-H23 lung)?
A: 38600 nM

Q: And the GI50 (NCI-H460 lung)?
A: 849 nM

Q: And the TGI (NCI-H460 lung)?
A: > 100000 nM

Q: What about the GI50 (NCI-H522 lung) of the same molecule?
A: 425 nM

Q: And the TGI (NCI-H522 lung)?
A: > 34500 nM

Q: And the GI50 (NCI/ADR-RES ovarian)?
A: 2450 nM

Q: And the TGI (NCI/ADR-RES ovarian)?
A: > 28200 nM

Q: What about the GI50 (OVCAR-3 ovarian) of the same molecule?
A: 368 nM

Q: And the GI50 (OVCAR-4 ovarian)?
A: 2120 nM

Q: And the TGI (OVCAR-4 ovarian)?
A: > 100000 nM

Q: What about the GI50 (OVCAR-5 ovarian) of the same molecule?
A: 4170 nM

Q: And the TGI (OVCAR-5 ovarian)?
A: > 100000 nM

Q: And the GI50 (OVCAR-8 ovarian)?
A: 2470 nM

Q: What about the TGI (OVCAR-8 ovarian) of the same molecule?
A: > 100000 nM

Q: And the GI50 (PC-3 prostate)?
A: 816 nM

Q: And the TGI (PC-3 prostate)?
A: > 100000 nM

Q: And the GI50 (RPMI-8226 leukemia)?
A: 1090 nM

Q: And the TGI (RPMI-8226 leukemia)?
A: > 100000 nM

Q: What about the GI50 (RXF 393 renal) of the same molecule?
A: 508 nM

Q: And the TGI (RXF 393 renal)?
A: 3210 nM

Q: And the GI50 (SF-268 CNS)?
A: 1560 nM

Q: What about the TGI (SF-268 CNS) of the same molecule?
A: 98900 nM

Q: What about the GI50 (SF-295 CNS) of the same molecule?
A: 983 nM

Q: And the TGI (SF-295 CNS)?
A: 19800 nM

Q: And the GI50 (SF-539 CNS)?
A: 424 nM

Q: What about the TGI (SF-539 CNS) of the same molecule?
A: 2740 nM

Q: What about the GI50 (SK-MEL-2 melanoma) of the same molecule?
A: 1700 nM

Q: What about the TGI (SK-MEL-2 melanoma) of the same molecule?
A: > 100000 nM

Q: And the GI50 (SK-MEL-28 melanoma)?
A: 5200 nM

Q: What about the TGI (SK-MEL-28 melanoma) of the same molecule?
A: > 100000 nM

Q: And the GI50 (SK-MEL-5 melanoma)?
A: 743 nM

Q: And the TGI (SK-MEL-5 melanoma)?
A: > 100000 nM

Q: What about the GI50 (SK-OV-3 ovarian) of the same molecule?
A: 3860 nM

Q: What about the TGI (SK-OV-3 ovarian) of the same molecule?
A: > 100000 nM

Q: What about the GI50 (SN12C renal) of the same molecule?
A: 1490 nM

Q: What about the TGI (SN12C renal) of the same molecule?
A: > 100000 nM

Q: What about the GI50 (SNB-19 CNS) of the same molecule?
A: 997 nM

Q: And the TGI (SNB-19 CNS)?
A: > 74800 nM

Q: What about the GI50 (SNB-75 CNS) of the same molecule?
A: 346 nM

Q: And the TGI (SNB-75 CNS)?
A: 2960 nM

Q: What about the GI50 (SR leukemia) of the same molecule?
A: 472 nM

Q: What about the TGI (SR leukemia) of the same molecule?
A: > 100000 nM

Q: And the GI50 (SW-620 colon)?
A: 496 nM

Q: What about the TGI (SW-620 colon) of the same molecule?
A: > 100000 nM

Q: And the GI50 (T-47D breast)?
A: 1640 nM

Q: And the TGI (T-47D breast)?
A: > 100000 nM

Q: What about the GI50 (TK-10 renal) of the same molecule?
A: 5230 nM

Q: And the TGI (TK-10 renal)?
A: > 100000 nM

Q: What about the GI50 (U251 CNS) of the same molecule?
A: 676 nM

Q: And the TGI (U251 CNS)?
A: 56700 nM

Q: What about the GI50 (UACC-257 melanoma) of the same molecule?
A: > 100000 nM

Q: What about the TGI (UACC-257 melanoma) of the same molecule?
A: > 100000 nM

Q: What about the GI50 (UACC-62 melanoma) of the same molecule?
A: 604 nM

Q: And the TGI (UACC-62 melanoma)?
A: > 100000 nM

Q: And the GI50 (UO-31 renal)?
A: 792 nM

Q: What about the TGI (UO-31 renal) of the same molecule?
A: > 21400 nM

From PubChem BioAssay (NCI)
